Data published in EP4670733A1, “METHODS FOR PREPARING VIRAL PROTEINS AND USES THEREOF” (priority 2024, dated 2025).

Legend:
[1] = system: B/Phuket/3073/2013 virus strain; assay: HA content by SRID; design: species or system influenza virus
[2] = Endotoxin content, limulus amoebocyte lysate (LAL) assay; conditions: drug substance (Sample E6)
NA enzyme = assay: NA enzymatic activity, MUNANA assay; assay type: biochemical, influenza virus; conditions: drug substance (Sample E6)
[3] = system: B/Phuket/3073/2013 virus strain; design: species or system influenza virus
[4] = system: B/Phuket/3073/2013 virus strain; assay: Splitting efficiency by ultracentrifugation in sucrose gradient; design: species or system influenza virus

Row | Substance | HA content in µg/mL (SRID) [1] [µg/mL] | Endotoxin content [2] [EU/mL] | NA enzymatic activity: NA activity (NA enzyme) [µmol/mL/h] | NA enzymatic activity: Specific activity (NA enzyme) [µmol/mg/h] | Residual infectious virus [3] | Splitting efficiency (ultracentrifugation in sucrose gradient) [4]
1 | C11-15-secondary alcohol ethoxylates | 241.24 | < 0.5 | 228 | 1915 | No Residual infectious virus | 
2 | Triton X-100 | 269.97 | < 0.5 | 155 |  | No Residual infectious virus | Conform* (Max total protein by OD280 at 40%sucrose for whole virus and lower than 30%sucrose for split virus.)
